Results: US9206184B2, “Disubstituted benzothienyl-pyrrolotriazines and uses thereof” (BAYER INTELLECTUAL PROPERTY GmbH, priority 2011, dated 2015)
Structures can show the parent of a compound that is named as a salt.

What was measured:
Type in all cases: biochemical
human mTOR = human mTOR (Homo sapiens (Human), UniProt P42345); test: mTOR kinase assay (TR-FRET, for comparative purposes); details: mean inhibition at 1 μM test compound; 40 μM ATP
human FGFR-1 = human FGFR-1 (Homo sapiens, UniProt P11362); test: FGFR-1 high ATP kinase assay (TR-FRET); details: 2 mM ATP; 15 min pre-incubation with enzyme; compounds of the invention
Sequence of human FGFR-1 (P11362 22-822 limits assumed): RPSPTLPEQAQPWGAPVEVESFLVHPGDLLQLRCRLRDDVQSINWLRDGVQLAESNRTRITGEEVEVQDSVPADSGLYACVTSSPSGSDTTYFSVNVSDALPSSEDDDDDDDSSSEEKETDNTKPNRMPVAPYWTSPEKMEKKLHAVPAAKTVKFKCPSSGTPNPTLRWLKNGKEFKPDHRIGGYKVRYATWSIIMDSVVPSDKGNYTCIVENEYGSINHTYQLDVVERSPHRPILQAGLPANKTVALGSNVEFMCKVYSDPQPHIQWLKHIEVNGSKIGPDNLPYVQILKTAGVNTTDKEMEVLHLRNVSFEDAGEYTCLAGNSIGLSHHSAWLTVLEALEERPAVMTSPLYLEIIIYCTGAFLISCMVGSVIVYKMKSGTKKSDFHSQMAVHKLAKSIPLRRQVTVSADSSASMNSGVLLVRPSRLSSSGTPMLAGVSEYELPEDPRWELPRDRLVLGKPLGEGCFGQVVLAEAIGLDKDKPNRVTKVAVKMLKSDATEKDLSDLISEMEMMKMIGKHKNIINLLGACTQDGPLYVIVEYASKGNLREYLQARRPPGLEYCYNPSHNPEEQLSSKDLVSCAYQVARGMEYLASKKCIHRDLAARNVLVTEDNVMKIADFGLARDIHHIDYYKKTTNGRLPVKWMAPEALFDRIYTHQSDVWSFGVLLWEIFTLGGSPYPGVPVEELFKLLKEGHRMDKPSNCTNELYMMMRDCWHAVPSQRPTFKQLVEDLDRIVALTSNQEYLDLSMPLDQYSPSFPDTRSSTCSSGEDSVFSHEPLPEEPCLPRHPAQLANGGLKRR

human FGFR-3 = human FGFR-3 (Homo sapiens (Human), UniProt P22607); test: FGFR-3 kinase assay (TR-FRET); details: 10 μM ATP; 15 min pre-incubation with enzyme; compounds of the invention
Sequence of human FGFR-3 (P22607 397-806): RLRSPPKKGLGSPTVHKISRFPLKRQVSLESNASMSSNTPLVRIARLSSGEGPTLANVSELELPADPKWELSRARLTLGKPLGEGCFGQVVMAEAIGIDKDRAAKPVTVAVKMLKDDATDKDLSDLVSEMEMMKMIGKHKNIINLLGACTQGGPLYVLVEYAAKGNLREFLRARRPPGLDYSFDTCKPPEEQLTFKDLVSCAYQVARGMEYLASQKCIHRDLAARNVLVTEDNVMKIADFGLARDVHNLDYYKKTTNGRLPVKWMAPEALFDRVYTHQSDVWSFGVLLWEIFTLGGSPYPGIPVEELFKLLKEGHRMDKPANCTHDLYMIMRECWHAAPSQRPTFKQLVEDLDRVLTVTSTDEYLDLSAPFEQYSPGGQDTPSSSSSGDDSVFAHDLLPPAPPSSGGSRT

Sequence of human mTOR (P42345 1360-2549): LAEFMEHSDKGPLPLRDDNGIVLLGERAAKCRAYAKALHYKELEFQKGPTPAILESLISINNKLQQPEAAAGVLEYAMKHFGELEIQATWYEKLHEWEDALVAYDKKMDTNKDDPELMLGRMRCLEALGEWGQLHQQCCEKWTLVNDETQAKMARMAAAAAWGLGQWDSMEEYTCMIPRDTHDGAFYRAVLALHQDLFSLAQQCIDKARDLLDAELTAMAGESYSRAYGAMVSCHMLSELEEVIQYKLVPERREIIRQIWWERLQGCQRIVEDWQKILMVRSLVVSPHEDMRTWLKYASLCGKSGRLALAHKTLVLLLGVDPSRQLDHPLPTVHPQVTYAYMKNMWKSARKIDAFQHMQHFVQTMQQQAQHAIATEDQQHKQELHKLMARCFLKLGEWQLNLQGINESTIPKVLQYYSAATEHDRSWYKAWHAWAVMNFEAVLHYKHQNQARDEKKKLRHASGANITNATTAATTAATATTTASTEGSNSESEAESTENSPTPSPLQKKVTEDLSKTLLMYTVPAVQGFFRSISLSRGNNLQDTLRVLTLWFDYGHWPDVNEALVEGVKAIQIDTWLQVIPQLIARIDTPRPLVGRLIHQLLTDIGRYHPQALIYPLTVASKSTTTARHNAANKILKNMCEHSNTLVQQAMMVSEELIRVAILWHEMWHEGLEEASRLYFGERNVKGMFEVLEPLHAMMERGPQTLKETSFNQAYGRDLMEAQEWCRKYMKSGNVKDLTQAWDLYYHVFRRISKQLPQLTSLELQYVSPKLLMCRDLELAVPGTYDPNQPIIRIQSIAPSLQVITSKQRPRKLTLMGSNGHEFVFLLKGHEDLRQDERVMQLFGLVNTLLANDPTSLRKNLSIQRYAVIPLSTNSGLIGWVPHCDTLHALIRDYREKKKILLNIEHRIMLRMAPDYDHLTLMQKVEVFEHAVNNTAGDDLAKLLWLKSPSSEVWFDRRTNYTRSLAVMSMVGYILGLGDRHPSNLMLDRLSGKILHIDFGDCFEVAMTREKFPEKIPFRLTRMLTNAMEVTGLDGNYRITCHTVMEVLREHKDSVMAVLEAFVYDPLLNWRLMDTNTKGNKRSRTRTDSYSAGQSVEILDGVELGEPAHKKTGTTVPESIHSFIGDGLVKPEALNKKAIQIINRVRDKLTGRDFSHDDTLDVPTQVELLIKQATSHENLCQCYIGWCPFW

Row | Compound | mTOR inhibition @ 1 μM (human mTOR) | IC50 (human FGFR-1) [nM] | IC50 (human FGFR-3) [nM]
1 | CCOCc1c(-c2cc3cc(C)cc(OC)c3s2)c2c(N)ncnn2c1CN1CCNCC1 [Example 18, 6-(Ethoxymethyl)-5-(7-methoxy-5-methyl-1-benzothiophen-2-yl)-7-(piperazin-1-ylmethyl)pyrrolo-[2,1-f][1,2,4]triazin-4-amine] | no inhib. effect detect. | – | –
2 | CCOCc1c(-c2cc3cc(C)cc(OC)c3s2)c2c(N)ncnn2c1CNCC(N)=O [Example 9, N^2-{[4-Amino-6-(ethoxymethyl)-5-(7-methoxy-5-methyl-1-benzothiophen-2-yl)pyrrolo[2,1-f]-[1,2,4]triazin-7-yl]methyl}glycinamide dihydrochloride] | no inhib. effect detect. | – | –
3 | CCOCc1c(-c2cc3cc(C)cc(OC)c3s2)c2c(N)ncnn2c1C(=O)N1CCC(O)CC1 [Example 121] | no inhib. effect detect. | 8.2 | 24.6
4 | COCCOCc1c(-c2cc3cc(C)cc(OC)c3s2)c2c(N)ncnn2c1CN1CCNCC1 [Example 28, 6-[(2-Methoxyethoxy)methyl]-5-(7-methoxy-5-methyl-1-benzothiophen-2-yl)-7-(piperazin-1-ylmethyl)pyrrolo[2,1-f][1,2,4]triazin-4-amine formiate] | no inhib. effect detect. | 2.1 | 9.7
5 | COCc1c(-c2cc3cc(C)ccc3s2)c2c(N)ncnn2c1CN1CCNC(=O)C1 [Example 89, 4-{[4-Amino-6-(methoxymethyl)-5-(5-methyl-1-benzothiophen-2-yl)pyrrolo[2,1-f][1,2,4]triazin-7-yl]methyl}piperazin-2-one] | no inhib. effect detect. | 82.9 | –
6 | COc1cc(C)cc2cc(-c3c(COCC(N)=O)c(CN4CCN(C(C)=O)CC4)n4ncnc(N)c34)sc12 [Example 34, 2-({7-[(4-Acetylpiperazin-1-yl)methyl]-4-amino-5-(7-methoxy-5-methyl-1-benzothiophen-2-yl)pyrrolo[2,1-f][1,2,4]triazin-6-yl}methoxy)acetamide] | – | 6 | 10.5
7 | COc1cc(C)cc2cc(-c3c(COCC4CC4)c(CN4CCNCC4)n4ncnc(N)c34)sc12 [Example 25, 6-[(Cyclopropylmethoxy)methyl]-5-(7-methoxy-5-methyl-1-benzothiophen-2-yl)-7-(piperazin-1-ylmethyl)pyrrolo[2,1-f][1,2,4]triazin-4-amine bis(formiate)] | – | 0.7 | 5.2
8 | COc1cc(C)cc2cc(-c3c(CN4CCNC(=O)C4)c(C(C)(C)O)n4ncnc(N)c34)sc12 [Example 74, 4-{[4-Amino-7-(2-hydroxypropan-2-yl)-5-(7-methoxy-5-methyl-1-benzothiophen-2-yl)pyrrolo-[2,1-f][1,2,4]triazin-6-yl]methyl}piperazin-2-one] | – | 4 | 1.4
9 | CCOCc1c(-c2cc3cc(C)cc(OC)c3s2)c2c(N)ncnn2c1CN1CCC(O)CC1 [Example 98] | no inhib. effect detect. | 17 | –
10 | COc1cc(C)cc2cc(-c3c(CN4CCC(O)C4)c(CN4CCNCC4)n4ncnc(N)c34)sc12 (racemic) [Example 42, rac-1-{[4-Amino-5-(7-methoxy-5-methyl-1-benzothiophen-2-yl)-7-(piperazin-1-ylmethyl)pyrrolo-[2,1-f][1,2,4]triazin-6-yl]methyl}pyrrolidin-3-ol trihydrochloride] | no inhib. effect detect. | – | 18.4
11 | COc1cc(C)cc2cc(-c3c(CNC(C)=O)c(CN4CCNC(=O)C4)n4ncnc(N)c34)sc12 [Example 67, N-({4-Amino-5-(7-methoxy-5-methyl-1-benzothiophen-2-yl)-7-[(3-oxopiperazin-1-yl)methyl]-pyrrolo[2,1-f][1,2,4]triazin-6-yl}methyl)acetamide] | – | 5 | 9.4
12 | COc1cc(C)cc2cc(-c3c(CN[C@@H]4CCNC4=O)c(CN4CCN(C(C)=O)CC4)n4ncnc(N)c34)sc12 [Example 56, (3R)-3-[({7-[(4-Acetylpiperazin-1-yl)methyl]-4-amino-5-(7-methoxy-5-methyl-1-benzothiophen-2-yl)pyrrolo[2,1-f][1,2,4]triazin-6-yl}methyl)amino]pyrrolidin-2-one] | – | 2.4 | 2
13 | COc1cc(C)cc2cc(-c3c(CN4CCNC(=O)C4)c(CN4CCN(C(C)=O)CC4)n4ncnc(N)c34)sc12 [Example 59, 4-({7-[(4-Acetylpiperazin-1-yl)methyl]-4-amino-5-(7-methoxy-5-methyl-1-benzothiophen-2-yl)pyrrolo[2,1-f][1,2,4]triazin-6-yl}methyl)piperazin-2-one] | – | 3.8 | 6.8
14 | CCOCc1c(-c2cc3cc(C)cc(OC)c3s2)c2c(N)ncnn2c1CN1CC[C@](C)(N)C1 [Example 15, 7-{[(3S)-3-Amino-3-methylpyrrolidin-1-yl]methyl}-6-(ethoxymethyl)-5-(7-methoxy-5-methyl-1-benzothiophen-2-yl)pyrrolo[2,1-f][1,2,4]triazin-4-amine] | – | 1 | 1
15 | CCOCc1c(-c2cc3cc(C)cc(OC)c3s2)c2c(N)ncnn2c1C(=O)N1CCNC(=O)C1 [Example 107, 4-{[4-Amino-6-(ethoxymethyl)-5-(7-methoxy-5-methyl-1-benzothiophen-2-yl)pyrrolo[2,1-f]-[1,2,4]triazin-7-yl]carbonyl}piperazin-2-one] | no inhib. effect detect. | 9.4 | 17.4
16 | COc1cc(C)cc2cc(-c3c(COC4CCC4)c(CN4CCNCC4)n4ncnc(N)c34)sc12 [Example 26, 6-[(Cyclobutyloxy)methyl]-5-(7-methoxy-5-methyl-1-benzothiophen-2-yl)-7-(piperazin-1-ylmethyl)pyrrolo[2,1-f][1,2,4]triazin-4-amine] | – | 0.9 | 4.9
17 | COc1cc(C)cc2cc(-c3c(CNCC(C)(C)O)c(C)n4ncnc(N)c34)sc12 [Example 77, 1-({[4-Amino-5-(7-methoxy-5-methyl-1-benzothiophen-2-yl)-7-methylpyrrolo[2,1-f][1,2,4]triazin-6-yl]methyl}amino)-2-methylpropan-2-ol formiate] | – | 1.4 | 3.8
18 | COc1cc(C)cc2cc(-c3c(C)c(CN4CCNCC4)n4ncnc(N)c34)sc12 [Example 84, 5-(7-Methoxy-5-methyl-1-benzothiophen-2-yl)-6-methyl-7-(piperazin-1-ylmethyl)pyrrolo[2,1-f]-[1,2,4]triazin-4-amine formiate] | – | 3.7 | 16.5
19 | COc1cc(C)cc2cc(-c3c(CN4CCC(O)CC4)c(CN4CCNCC4)n4ncnc(N)c34)sc12 [Example 41, 1-{[4-Amino-5-(7-methoxy-5-methyl-1-benzothiophen-2-yl)-7-(piperazin-1-ylmethyl)pyrrolo-[2,1-f][1,2,4]triazin-6-yl]methyl}piperidin-4-ol trihydrochloride] | no inhib. effect detect. | 2.8 | 7.2
20 | COc1cc(C)cc2cc(-c3c(CN4CCNC(=O)C4)c(CN4CCOCC4)n4ncnc(N)c34)sc12 [Example 52, 4-{[4-Amino-5-(7-methoxy-5-methyl-1-benzothiophen-2-yl)-7-(morpholin-4-ylmethyl)pyrrolo-[2,1-f][1,2,4]triazin-6-yl]methyl}piperazin-2-one] | – | 9.7 | 7
21 | CCOCc1c(-c2cc3cc(C)cc(OC)c3s2)c2c(N)ncnn2c1C(=O)N1CCS(=O)(=O)C1 [Example 119] | no inhib. effect detect. | 9 | 4.5
22 | CCOCc1c(-c2cc3cc(C)cc(OC)c3s2)c2c(N)ncnn2c1C(O)C1CC1 (stereo not shown) [Example 91, [4-Amino-6-(ethoxymethyl)-5-(7-methoxy-5-methyl-1-benzothiophen-2-yl)pyrrolo[2,1-f][1,2,4]-triazin-7-yl](cyclopropyl)methanol] | – | 52.9 | 31.1
23 | COc1cc(C)cc2cc(-c3c(CO)c(C#N)n4ncnc(N)c34)sc12 [Example 68, 4-Amino-6-(hydroxymethyl)-5-(7-methoxy-5-methyl-1-benzothiophen-2-yl)pyrrolo[2,1-f][1,2,4]-triazine-7-carbonitrile] | – | 27 | 42.7
24 | COc1cc(C)cc2cc(-c3c(CO)c(Cl)n4ncnc(N)c34)sc12 [Example 79, [4-Amino-7-chloro-5-(7-methoxy-5-methyl-1-benzothiophen-2-yl)pyrrolo[2,1-f][1,2,4]triazin-6-yl]methanol] | – | 12.6 | 17.9
25 | CCOCc1c(-c2cc3cc(C)cc(OC)c3s2)c2c(N)ncnn2c1C(=O)N1CNC(=O)C1 [Example 117] | – | 8.8 | 5.3
26 | CCOCc1c(-c2cc3cc(C)cc(OC)c3s2)c2c(N)ncnn2c1C(=O)N(C)C [Example 114] | – | 11.2 | 9.6
27 | CCOCc1c(-c2cc3cc(C)cc(OC)c3s2)c2c(N)ncnn2c1C(=O)N[C@@H]1CCNC1=O [Example 106, 4-Amino-6-(ethoxymethyl)-5-(7-methoxy-5-methyl-1-benzothiophen-2-yl)-N-[(3R)-2-oxopyrrolidin-3-yl]pyrrolo[2,1-f][1,2,4]triazine-7-carboxamide] | – | 6.4 | 7.1
28 | COc1cc(C)cc2cc(-c3c(CNC(C)=O)c(CN4CCN(C(C)=O)CC4)n4ncnc(N)c34)sc12 [Example 66, N-({7-[(4-Acetylpiperazin-1-yl)methyl]-4-amino-5-(7-methoxy-5-methyl-1-benzothiophen-2-yl)pyrrolo[2,1-f][1,2,4]triazin-6-yl}methyl)acetamide] | – | 1.6 | 3.7
29 | COc1cc(C)cc2cc(-c3c(CNCC(C)(C)O)c(C)n4ncnc(N)c34)sc12 [Example 78, 1-({[4-Amino-5-(7-methoxy-5-methyl-1-benzothiophen-2-yl)-7-methylpyrrolo[2,1-f][1,2,4]triazin-6-yl]methyl}amino)-2-methylpropan-2-ol] | – | 1.7 | 2
